This note sets out measurements from patent US9243020B2, “Selective glycosidase inhibitors and uses thereof” (priority 2010, dated 2016).

Data set [1] is described as follows: Assay for determination of apparent permeability (Papp), bi-directional transport. The class given is in vitro ADME. As to conditions: pig, LLC-PK1; 1 μM test compound, t=3 h, average of A to B and B to A; read-out: Papp LLC-PK-1 cells. As to the method: Bi-directional transport was evaluated in LLC-PK1 cells in order to determine apparent permeability (Papp). LLC-PK1 cells can form a tight monolayer and therefore can be used to assess vectorial transport of compounds from basolateral to apical (B→A) and from apical to basolateral (A→B).
To determine Papp, LLC-PK1 cells were cultured in 96-well transwell culture plates (Millipore). Solutions containing the test compounds (1 μM) were prepared in Hank's Balanced Salt Solution with 10 mM HEPES. Substrate solution (150 μL) was added to either the apical (A) or the basolateral (B) compartment of the culture plate, and buffer (150 μL) was added to the compartment opposite to that containing the compound. At t=3 h, 50 μL samples were removed from both sides of monolayers dosed with test compound and placed in 96 well plates, scintillant (200 μL) or internal standard (100 μL labetolol 104) was added to the samples and concentration was determined by liquid scintillation counting in a MicroBeta Wallac Trilux scintillation counter (Perkin Elmer Life Sciences, Boston, Mass.) or by LCMS/MS (Applied Biosystems SCIEX API 5000 triple quadruple mass spectrometer). [^3H]Verapamil (1 μM) was used as the positive control. The experiment was performed in triplicate.
The apparent permeability, Papp, was calculated by the following formula for samples taken at t=3 h:
[formula] Where: Volume of Receptor Chamber was 0.15 mL; Area of membrane was 0.11 cm^2; the Initial Concentration is the sum of the concentration measured in the donor plus concentration measured in receiver compartments at t=3 h; Δ in Concentration is concentration in the receiver compartment at 3 h; and Δ in Time is the incubation time (3×60×60=10800 s). Papp was expressed as 10^−6 cm/s. The Papp (LLC-PK1 cells) are the average of the Papp for transport from A to B and Papp for transport from B to A at t=3 h: […]

The next data set concerns the target human O-GlcNAcase (Homo sapiens (Human), UniProt O60502). The data set is described as follows: Assay for determination of Ki values for inhibition of O-GlcNAcase activity (fluorescence-based). The class given is biochemical. The following applies: purified human O-GlcNAcase 0.7 nM, 2 mM 4-methylumbelliferyl N-acetyl-β-D-glucosaminide, pH 7.0, Cheng-Prusoff; read-out: Fluorescence-based hOGA Ki.

In data set [2] the test system is O-GlcNAcylated protein in rat PC-12 cells. The data set is described as follows: Cell-based ELISA for cellular activity of O-GlcNAcase inhibitors (RL-2 antibody). As to conditions: 24 h treatment, increase in O-GlcNAcylated protein detected with RL-2 antibody. On the technique in general: An ELISA detects its analyte on a solid surface through an enzyme-linked reagent.
From the text: Inhibition of O-GlcNAcase, which removes O-GlcNAc from cellular proteins, results in an increase in the level of O-GlcNAcylated protein in cells. An increase in O-GlcNAcylated protein can be measured by an antibody, such as RL-2, that binds to O-GlcNAcylated protein. The amount of O-GleNAcylated protein:RL2 antibody interaction can be measured by enzyme linked immunosorbant assay (ELISA) procedures.
A variety of tissue culture cell lines, expressing endogenous levels of O-GlcNAcase, can be utilized; examples include rat PC-12, and human U-87, or SK-N-SH cells. In this assay,rat PC-12 cells were plated in 96-well plates with approximately 10,000 cells/well. Compounds to be tested were dissolved in DMSO, either 2 or 10 mM stock solution, and then diluted with DMSO and water in a two-step process using a Tecan workstation. […] To prepare a cell lysate, the media from compound treated cells was removed, the cells were washed once with phosphate buffered saline (PBS) and then lysed for 5 minutes at room temperature in 50 μL of Phosphosafe reagent (Novagen Inc, Madison, Wis.) with protease inhibitors and PMSF. The cell lysate was collected and transferred to a new plate, which was then either coated to assay plates directly or frozen −80° C. until used in the ELISA procedure. If desired, the total protein concentration of samples was determined using 20 μL of the sample using the BCA method.
The ELISA portion of the assay was performed in a black Maxisorp 96-well plate that was coated overnight at 4° C. with 100 μL/well of the cell lysate (1:10 dilution of the lysate with PBS containing protease inhibitors, phosphatase inhibitors, and PMSF). The following day the wells were washed 3 times with 300 μL/well of Wash buffer (Tris-buffered saline with 0.1% Tween 20). The wells were blocked with 100 μl/well Blocking buffer (Tris buffered saline w/0.05% Tween 20 and 2.5% Bovine serum albumin). Each well was then washed two times with 300 μL/well of wash buffer. […] The plate was sealed and incubated at 37° C. for 2 h with gentle shaking. The wells were then washed 3-times with 300 μL/well wash buffer. […] The plate was incubated for 60 min at 37° C. with gentle shaking. Each well was then washed 3-times with 300 μL/well wash buffer. The detection reagent was added, 100 μL/well of Amplex Ultra RED reagent (prepared by adding 30 μL of 10 mM Amplex Ultra Red stock solution to 10 mL PBS with 18 μL 3% hydrogen peroxide, H2O2). The detection reaction was incubated for 15 minutes at room temperature and then read with excitation at 530 nm and emission at 590 nm.
The amount of O-GlcNAcylated protein, as detected by the ELISA assay, was plotted for each concentration of test compound using standard curve fitting algorithms for sigmoidal dose response curves. The values for a four parameter logistic curve fit of the data were determined, with the inflection point of the curve being the potency value for the test compound.

human O-GlcNAcase, sequence (O60502 whole entry): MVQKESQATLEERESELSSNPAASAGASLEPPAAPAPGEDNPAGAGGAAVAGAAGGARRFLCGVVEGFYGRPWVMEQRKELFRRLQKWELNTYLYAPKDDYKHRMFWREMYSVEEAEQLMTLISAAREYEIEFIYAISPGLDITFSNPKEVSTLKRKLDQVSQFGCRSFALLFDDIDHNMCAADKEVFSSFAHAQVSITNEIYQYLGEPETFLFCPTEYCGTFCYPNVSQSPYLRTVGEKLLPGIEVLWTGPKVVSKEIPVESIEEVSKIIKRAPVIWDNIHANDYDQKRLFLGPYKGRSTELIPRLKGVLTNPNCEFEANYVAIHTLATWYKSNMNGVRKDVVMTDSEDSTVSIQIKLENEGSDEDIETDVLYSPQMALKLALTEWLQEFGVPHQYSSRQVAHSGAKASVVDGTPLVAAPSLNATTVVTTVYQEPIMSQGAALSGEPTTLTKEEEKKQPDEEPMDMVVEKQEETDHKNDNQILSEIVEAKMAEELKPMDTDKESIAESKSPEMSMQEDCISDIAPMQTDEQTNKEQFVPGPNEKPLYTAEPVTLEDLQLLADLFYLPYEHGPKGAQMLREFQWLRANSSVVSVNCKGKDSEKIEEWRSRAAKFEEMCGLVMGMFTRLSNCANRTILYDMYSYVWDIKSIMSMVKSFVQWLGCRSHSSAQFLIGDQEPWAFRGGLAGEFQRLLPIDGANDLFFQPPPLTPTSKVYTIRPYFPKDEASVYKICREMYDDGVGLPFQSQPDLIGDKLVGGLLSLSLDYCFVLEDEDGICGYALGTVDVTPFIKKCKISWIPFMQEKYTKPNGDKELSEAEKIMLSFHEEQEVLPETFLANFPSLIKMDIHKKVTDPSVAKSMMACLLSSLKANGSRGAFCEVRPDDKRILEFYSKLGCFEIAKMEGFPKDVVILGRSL
Method for human O-GlcNAcase: Experimental procedure for kinetic analyses: Enzymatic reactions were carried out in a reaction containing 50 mM NaH2PO4, 100 mM NaCl and 0.1% BSA (pH 7.0) using 2 mM 4-Methylumbelliferyl N-acetyl-β-D-glucosaminide dihydrate (Sigma M2133) dissolved in ddH2O, as a substrate. The amount of purified human O-GlcNAcase enzyme used in the reaction was 0.7 nM. Test compound of varying concentrations was added to the enzyme prior to initiation of the reaction. The reaction was performed at room temperature in a 96-well plate and was initiated with the addition of substrate. […] The slope of product production was determined for each concentration of compound tested and plotted, using standard curve fitting algorithms for sigmoidal dose response curves. The values for a four parameter logistic curve fit of the data were determined.

What is called Papp is the rate of passage across a membrane or cell layer, normalised by area and donor concentration. As for `CCNC1=N[C@@H]2[C@@H](O)[C@H](O)[C@@H](CO)O[C@@H]2S1` [(3aR,5R,6S,7R,7aR)-2-(ethylamino)-5-(hydroxymethyl)-5,6,7,7a-tetrahydro-3aH-pyrano[3,2-d]thiazole-6,7-diol, reference compound], in data set [1], the Papp at 3 h, 1 μM was under 1 ×10⁻⁶ cm/s.
The term Ki denotes the equilibrium dissociation constant of an inhibitor or competing ligand from its target. With `CCNC1=N[C@@H]2[C@@H](O)[C@H](O)[C@@H](C)O[C@@H]2S1` [Example 1, (3aR,5R,6S,7R,7aR)-2-(ethylamino)-5-methyl-5,6,7,7a-tetrahydro-3aH-pyrano[3,2-d]thiazole-6,7-diol], at human O-GlcNAcase, the Ki was determined as 70 nM.
By EC50 is commonly meant the concentration at which the effect is half-maximal. A high value points to a less potent agent. For `CNC1=N[C@@H]2[C@@H](O)[C@H](O)[C@@H](CF)O[C@@H]2S1` [Example 17, (3aR,5S,6S,7R,7aR)-5-(fluoromethyl)-2-(methylamino)-5,6,7,7a-tetrahydro-3aH-pyrano[3,2-d]thiazole-6,7-diol], the Ki at human O-GlcNAcase was found to be 0.5 nM. The Papp at 3 h, 1 μM in data set [1] is 7.1 ×10⁻⁶ cm/s. Moreover, the EC50 in data set [2] came out at 34 nM.
Consider `CCNC1=N[C@@H]2C[C@H](O)[C@@H](CO)O[C@@H]2S1` [Example 2, (3aR,5R,6S,7aR)-2-(ethylamino)-5-(hydroxymethyl)-5,6,7,7a-tetrahydro-3aH-pyrano[3,2-d]thiazol-6-ol], for which the Papp at 3 h, 1 μM in data set [1] stood at 3.8 ×10⁻⁶ cm/s.
For the molecule `CN(C)C1=N[C@@H]2[C@@H](O)[C@H](O)[C@@H](CO)O[C@@H]2S1` [(3aR,5R,6S,7R,7aR)-2-(dimethylamino)-5-(hydroxymethyl)-5,6,7,7a-tetrahydro-3aH-pyrano[3,2-d]thiazole-6,7-diol, reference compound], the inhibitory constant (Ki) on human O-GlcNAcase was 0.3 nM. Also, the Papp at 3 h, 1 μM in data set [1] is under 1 ×10⁻⁶ cm/s. Besides, the EC50 in data set [2] was 10 nM.
For `CNC1=N[C@@H]2C[C@H](O)[C@@H](C(F)F)O[C@@H]2S1` [Example 27, (3aR,5S,6S,7aR)-5-(difluoromethyl)-2-(methylamino)-5,6,7,7a-tetrahydro-3aH-pyrano[3,2-d]thiazol-6-ol], the Ki on human O-GlcNAcase stood at 28 nM. For the same molecule, in data set [1], the Papp at 3 h, 1 μM is 24 ×10⁻⁶ cm/s.
For `CNC1=N[C@@H]2[C@H](F)[C@H](O)[C@@H](C(F)F)O[C@@H]2S1` [Example 33, (3aR,5S,6R,7S,7aR)-5-(difluoromethyl)-7-fluoro-2-(methylamino)-5,6,7,7a-tetrahydro-3aH-pyrano[3,2-d]thiazol-6-ol], in that order: 13 nM and 20.1 ×10⁻⁶ cm/s.
Regarding `CNC1=N[C@@H]2[C@@H](F)[C@H](O)[C@@H](CO)O[C@@H]2S1` [Example 9, (3aR,5R,6R,7R,7aR)-7-fluoro-5-(hydroxymethyl)-2-(methylamino)-5,6,7,7a-tetrahydro-3aH-pyrano[3,2-d]thiazol-6-ol], the Ki on human O-GlcNAcase is 1.3 nM. In addition, the EC50 in data set [2] turned out to be 307 nM.
As to `CCNC1=N[C@@H]2[C@@H](O)[C@H](O)[C@@H](C(F)F)O[C@@H]2S1` [Example 19, (3aR,5S,6S,7R,7aR)-5-(difluoromethyl)-2-(ethylamino)-5,6,7,7a-tetrahydro-3aH-pyrano[3,2-d]thiazole-6,7-diol], the Ki at human O-GlcNAcase amounted to 5.7 nM. Besides, the Papp at 3 h, 1 μM in data set [1] came out at 6 ×10⁻⁶ cm/s. In data set [2], this molecule returned an EC50 of 53 nM.
For `CN(C)C1=N[C@@H]2[C@@H](O)[C@H](O)[C@@H](C(F)F)O[C@@H]2S1` [Example 20, (3aR,5S,6S,7R,7aR)-5-(difluoromethyl)-2-(dimethylamino)-5,6,7,7a-tetrahydro-3aH-pyrano[3,2-d]thiazole-6,7-diol], in that order: 1.4 nM, 13.7 ×10⁻⁶ cm/s and 6 nM.
Turning to `CCNC1=N[C@@H]2[C@@H](O)[C@@H](O)[C@@H](C(F)F)O[C@@H]2S1` [Example 29, (3aR,5S,6R,7R,7aR)-5-(difluoromethyl)-2-(ethylamino)-5,6,7,7a-tetrahydro-3aH-pyrano[3,2-d]thiazole-6,7-diol], at human O-GlcNAcase, the inhibition constant Ki turned out to be 164 nM.
